Values quoted from earlier work in patent EP2566463B1, “EXTENDED RELEASE THIOCO[…]” (Ali Raif Ilac Sanayi Ve Ticaret A.S., priority 2010, dated 2011).

How the values were obtained:
[1] = conventional, immediate release forms of thiocolchicoside
[2] = conventional, immediate release forms

| Molecule | Elimination half life in plasma [1] [h] | muscle relaxing effect starts [2] [h] |
| --- | --- | --- |
| COc1c(O)cc2c(c1OC)-c1ccc(SC)c(=O)cc1C(NC(C)=O)CC2 (stereo not drawn) [3-Desmethylthiocolchicine] | 4 to 5 | – |
| N-[3-(β-D-glucopyranosyloxy)-1,2-dimethoxy-10-(methylthio)-9-oxo-5,6,7,9-tetrahydrobenzo[a]heptalen-7-yl]acetamide [thiocolchicoside] | 4 to 5 | 1 to 2 |
